The values that follow come from patent US8975398B2, “NAMPT inhibitors” (AbbVie Inc., priority 2012, dated 2015).

This experiment relates to PC3 cells. The experiment is described as follows: NAMPT Cell Proliferation Assay (Cell Titer Glo; also performed in the presence of 0.3 mM nicotinamide mononucleotide). Format: cell-based. The settings on record: Homo sapiens, PC-3, 120 h, 5 days incubation, cell viability by Cell Titer Glo. In a few lines:
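Following overnight attachment in RPMI with 10% heat-inactivated FBS, PC3 cells at 500 per well receive compounds spanning 10 μM down to 1×10^−5 μM. Growth is assessed by luminescent viability read after 5 days.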
(In ATP-based viability assays light output follows the ATP content of the culture.)

A word on the IC50: it is the concentration at which inhibition is half-maximal.

Take `CC(C)CCC(=O)N1CCC(Cc2ccc(NC(=O)C3CN(c4cccnn4)C3)cc2)CC1` [Example 935, N-(4-{[1-(4-methylpentanoyl)piperidin-4-yl]methyl}phenyl)-1-(pyridazin-3-yl)azetidine-3-carboxamide]: the IC50 came to 2 nM.

`CSCCC(=O)N1CCC(Cc2ccc(NC(=O)C3CN(c4cccnn4)C3)cc2)CC1` [Example 936, N-[4-({1-[3-(methylsulfanyl)propanoyl]piperidin-4-yl}methyl)phenyl]-1-(pyridazin-3-yl)azetidine-3-carboxamide]: the IC50 stood at 2.18 nM.

As for `O=C(Nc1ccc(CC2CCN(C(=O)c3cscn3)CC2)cc1)C1CN(c2cccnn2)C1` [Example 937, 1-(pyridazin-3-yl)-N-(4-{[1-(1,3-thiazol-4-ylcarbonyl)piperidin-4-yl]methyl}phenyl)azetidine-3-carboxamide], the IC50 was found to be 2.62 nM.

Consider `O=C(Nc1ccc(CC2CCN(C(=O)c3ccn[nH]3)CC2)cc1)C1CN(c2cccnn2)C1` [Example 938, N-(4-{[1-(1H-pyrazol-5-ylcarbonyl)piperidin-4-yl]methyl}phenyl)-1-(pyridazin-3-yl)azetidine-3-carboxamide], for which the IC50 worked out at 8.75 nM.

Take `Cc1ccc(C(=O)N2CCC(Cc3ccc(NC(=O)C4CN(c5cccnn5)C4)cc3)CC2)cn1` [Example 939, N-[4-({1-[(6-methylpyridin-3-yl)carbonyl]piperidin-4-yl}methyl)phenyl]-1-(pyridazin-3-yl)azetidine-3-carboxamide]: the IC50 stood at 2.96 nM.

For `Cc1ccsc1C(=O)N1CCC(Cc2ccc(NC(=O)C3CN(c4cccnn4)C3)cc2)CC1` [Example 940, N-[4-({1-[(3-methylthiophen-2-yl)carbonyl]piperidin-4-yl}methyl)phenyl]-1-(pyridazin-3-yl)azetidine-3-carboxamide], the half-maximal inhibitory concentration (IC50) is 1.97 nM.

For `C#CCCC(=O)N1CCC(Cc2ccc(NC(=O)C3CN(c4cccnn4)C3)cc2)CC1` [Example 941, N-(4-{[1-(pent-4-ynoyl)piperidin-4-yl]methyl}phenyl)-1-(pyridazin-3-yl)azetidine-3-carboxamide], the IC50 is 2.1 nM.

As to `O=C(Nc1ccc(CC2CCN(C(=O)c3ccsc3)CC2)cc1)C1CN(c2cccnn2)C1` [Example 942, 1-(pyridazin-3-yl)-N-(4-{[1-(thiophen-3-ylcarbonyl)piperidin-4-yl]methyl}phenyl)azetidine-3-carboxamide], the IC50 was 2.76 nM.

Turning to `COCC(=O)N1CCC(Cc2ccc(NC(=O)C3CN(c4cccnn4)C3)cc2)CC1` [Example 943, N-(4-{[1-(methoxyacetyl)piperidin-4-yl]methyl}phenyl)-1-(pyridazin-3-yl)azetidine-3-carboxamide], the IC50 worked out at 7.6 nM.

`O=C(Nc1ccc(CC2CCN(C(=O)C3CCCO3)CC2)cc1)C1CN(c2cccnn2)C1` (stereo not shown) [Example 944, 1-(pyridazin-3-yl)-N-(4-{[1-(tetrahydrofuran-2-ylcarbonyl)piperidin-4-yl]methyl}phenyl)azetidine-3-carboxamide]: the IC50 came out at 7.14 nM.

Regarding `COCCOCC(=O)N1CCC(Cc2ccc(NC(=O)C3CN(c4cccnn4)C3)cc2)CC1` [Example 945, N-[4-({1-[(2-methoxyethoxy)acetyl]piperidin-4-yl}methyl)phenyl]-1-(pyridazin-3-yl)azetidine-3-carboxamide], the IC50 is 4.51 nM.

For the compound `CCOCC(=O)N1CCC(Cc2ccc(NC(=O)C3CN(c4cccnn4)C3)cc2)CC1` [Example 946, N-(4-{[1-(ethoxyacetyl)piperidin-4-yl]methyl}phenyl)-1-(pyridazin-3-yl)azetidine-3-carboxamide], the IC50 was 2.89 nM.

On to `O=C(Nc1ccc(CC2CCN(C(=O)c3cccs3)CC2)cc1)C1CN(c2cccnn2)C1` [Example 947, 1-(pyridazin-3-yl)-N-(4-{[1-(thiophen-2-ylcarbonyl)piperidin-4-yl]methyl}phenyl)azetidine-3-carboxamide], for which the IC50 is 2.56 nM.
